Laboratory results: patent publication US6852673B2, “Herbicidal pyridine compounds” (BASF Aktiengesellschaft, priority 1998, dated 2005)

How the values were obtained:
Format in all cases: in vivo
[1] = system: Solanum nigrum (SOLNI); assay: Pre-emergence herbicidal evaluation, black nightshade
Description: (§1) The pre-emergence herbicidal activity of the compounds of the present invention is exemplified by the following test in which the seeds of a variety of monocotyledonous and dicotyledonous plants are seperately mixed with potting soil and planted on top of approximately one inch of soil in separate pots. After planting, the pots are sprayed with the selected aqueous acetone solution containing test compound in sufficient quantity to provide the equivalent of about 0.0125 to 0.4 kg per hectare of test compound per pot. The treated pots are then placed on greenhouse benches, watered and cared for in accordance with conventional greenhouse procedures. From 2 to 4 weeks after treatment, the tests are terminated and each pot is examined and rated according to the rating system set forth below.

[2] = system: Oryza sativum (ORYSA); assay: Post-emergence herbicidal evaluation, rice; details: rated 2 to 4 weeks after treatment
Description: (§2) [table] [table] […] These acetone solutions are diluted with water and the resulting formulations applied at dosage levels equivalent of about 0.03 to 0.4 kg per hectare of test compound per pot. After spraying the plants are placed on greenhouse benches and are cared for in the usual manner, commensurate with conventional greenhouse practices. From 2 to 4 weeks after treatment, the seedling plants are examined and rated according to the rating system provided above. A rating 0 indicates growth as untreated control, a rating 9 indicates death.

[3] = system: Hordeum vulgare (HORVW); assay: Pre-emergence herbicidal evaluation, winter barley
Description: as §1

[4] = system: Abutilon theophrasti (ABUTH); assay: Post-emergence herbicidal evaluation, velvetleaf; details: rated 2 to 4 weeks after treatment
Description: as §2

[5] = system: Galium aparine (GALAP); assay: Post-emergence herbicidal evaluation, cleaver; details: rated 2 to 4 weeks after treatment
Description: as §2

[6] = system: Cassia obtusifolia (CASOB); assay: Post-emergence herbicidal evaluation, sicklepod; details: rated 2 to 4 weeks after treatment
Description: as §2

[7] = system: Cassia obtusifolia (CASOB); assay: Pre-emergence herbicidal evaluation, sicklepod
Description: as §1

[8] = system: Ipomoea hederacea (IPOHE); assay: Pre-emergence herbicidal evaluation, morning glory
Description: as §1

[9] = system: Matricaria inodora (MATIN); assay: Pre-emergence herbicidal evaluation, mayweed
Description: as §1

[10] = system: Digitaria sanguinalis (DIGSA); assay: Pre-emergence herbicidal evaluation, large crabgrass
Description: as §1

Row | Compound | SOLNI rating ([1]; dose 0.013 kg/ha) | SOLNI rating ([1]; dose 0.025 kg/ha) | SOLNI rating ([1]; dose 0.1 kg/ha) | SOLNI rating ([1]; dose 0.4 kg/ha) | ORYSA rating ([2]; dose 0.03 kg/ha) | ORYSA rating ([2]; dose 0.1 kg/ha) | ORYSA rating ([2]; dose 0.4 kg/ha) | HORVW rating ([3]; dose 0.013 kg/ha) | HORVW rating ([3]; dose 0.025 kg/ha) | HORVW rating ([3]; dose 0.1 kg/ha) | HORVW rating ([3]; dose 0.4 kg/ha) | ABUTH rating ([4]; dose 0.03 kg/ha) | ABUTH rating ([4]; dose 0.1 kg/ha) | ABUTH rating ([4]; dose 0.4 kg/ha) | GALAP rating ([5]; dose 0.03 kg/ha) | GALAP rating ([5]; dose 0.1 kg/ha) | GALAP rating ([5]; dose 0.4 kg/ha) | IPOHE rating ([8]; dose 0.013 kg/ha) | IPOHE rating ([8]; dose 0.025 kg/ha) | IPOHE rating ([8]; dose 0.1 kg/ha) | other results
1 | Cc1cc(OC/C=C/C(F)(F)F)nc(Oc2cc(C(F)(F)F)nn2C)c1 [Example 1, (E)-2-(1-Methyl-3-trifluoromethylpyrazol-5-yloxy)-4-methyl-6-(4,4,4-trifluorobut-2-enyloxy)pyridine] | 4 (4 - Injury) | 8 (8 - Approaching complete kill) | 9 (9 - Complete kill) | 9 (9 - Complete kill) | 2 (2 - Slight effect) | 3 (3 - Moderate effect) | 5 (5 - Definite injury) | 1 (1 - Trace effect) | 2 (2 - Slight effect) | 5 (5 - Definite injury) | 5 (5 - Definite injury) | 8 (8 - Approaching complete kill) | 8 (8 - Approaching complete kill) | 8 (8 - Approaching complete kill) | 7 (7 - Good herbicidal effect) | 8 (8 - Approaching complete kill) | 8 (8 - Approaching complete kill) | 2 (2 - Slight effect) | 5 (5 - Definite injury) | 7 (7 - Good herbicidal effect) | CASOB rating ([6]; dose 0.03 kg/ha): 5 (5 - Definite injury); CASOB rating ([6]; dose 0.1 kg/ha): 5 (5 - Definite injury); CASOB rating ([6]; dose 0.4 kg/ha): 5 (5 - Definite injury); CASOB rating ([7]; dose 0.013 kg/ha): 0 (0 - No effect); CASOB rating ([7]; dose 0.025 kg/ha): 9 (9 - Complete kill); CASOB rating ([7]; dose 0.1 kg/ha): 9 (9 - Complete kill); CASOB rating ([7]; dose 0.4 kg/ha): 9 (9 - Complete kill); IPOHE rating ([8]; dose 0.4 kg/ha): 9 (9 - Complete kill); MATIN rating ([9]; dose 0.013 kg/ha): 8 (8 - Approaching complete kill); MATIN rating ([9]; dose 0.025 kg/ha): 9 (9 - Complete kill); MATIN rating ([9]; dose 0.1 kg/ha): 9 (9 - Complete kill); MATIN rating ([9]; dose 0.4 kg/ha): 9 (9 - Complete kill)
2 | Cc1cc(OC=CCC(F)(F)F)nc(Oc2cc(C(F)(F)F)nn2C)c1 [Example 2, 2-(1-Methyl-3-trifluoromethylpyrazol-5-yloxy)-4-methyl-6-(4,4,4-trifluorobut-1-enyloxy)pyridine] | 0 (0 - No effect) | 1 (1 - Trace effect) | 8 (8 - Approaching complete kill) | 9 (9 - Complete kill) | 2 (2 - Slight effect) | 3 (3 - Moderate effect) | 3 (3 - Moderate effect) | 0 (0 - No effect) | 0 (0 - No effect) | 3 (3 - Moderate effect) | 5 (5 - Definite injury) | 8 (8 - Approaching complete kill) | 8 (8 - Approaching complete kill) | 9 (9 - Complete kill) | 5 (5 - Definite injury) | 7 (7 - Good herbicidal effect) | 9 (9 - Complete kill) | 1 (1 - Trace effect) | 3 (3 - Moderate effect) | 3 (3 - Moderate effect) | CASOB rating ([7]; dose 0.013 kg/ha): 0 (0 - No effect); CASOB rating ([7]; dose 0.025 kg/ha): 1 (1 - Trace effect); CASOB rating ([7]; dose 0.1 kg/ha): 9 (9 - Complete kill); CASOB rating ([7]; dose 0.4 kg/ha): 9 (9 - Complete kill); IPOHE rating ([8]; dose 0.4 kg/ha): 7 (7 - Good herbicidal effect); MATIN rating ([9]; dose 0.013 kg/ha): 4 (4 - Injury); MATIN rating ([9]; dose 0.025 kg/ha): 6 (6 - Herbicidal effect); MATIN rating ([9]; dose 0.1 kg/ha): 8 (8 - Approaching complete kill); MATIN rating ([9]; dose 0.4 kg/ha): 9 (9 - Complete kill)
3 | COc1cc(OCC(F)(F)C(F)F)nc(Oc2cc(C(F)(F)F)nn2C)c1 [Example 4, 2-(1-Methyl-3-trifluoromethylpyrazol-5-yloxy)-4-methoxy-6-(2,2,3,3-tetrafluoropropyloxy)pyridine] | 6 (6 - Herbicidal effect) | 8 (8 - Approaching complete kill) | 8 (8 - Approaching complete kill) | 8 (8 - Approaching complete kill) | 2 (2 - Slight effect) | 2 (2 - Slight effect) | 4 (4 - Injury) | 1 (1 - Trace effect) | 2 (2 - Slight effect) | 3 (3 - Moderate effect) | 4 (4 - Injury) | 4 (4 - Injury) | 6 (6 - Herbicidal effect) | 6 (6 - Herbicidal effect) | 6 (6 - Herbicidal effect) | 9 (9 - Complete kill) | 9 (9 - Complete kill) | 3 (3 - Moderate effect) | 6 (6 - Herbicidal effect) | 9 (9 - Complete kill) | CASOB rating ([7]; dose 0.013 kg/ha): 3 (3 - Moderate effect); CASOB rating ([7]; dose 0.025 kg/ha): 4 (4 - Injury); CASOB rating ([7]; dose 0.1 kg/ha): 7 (7 - Good herbicidal effect); CASOB rating ([7]; dose 0.4 kg/ha): 9 (9 - Complete kill); IPOHE rating ([8]; dose 0.4 kg/ha): 9 (9 - Complete kill); MATIN rating ([9]; dose 0.013 kg/ha): 8 (8 - Approaching complete kill); MATIN rating ([9]; dose 0.025 kg/ha): 8 (8 - Approaching complete kill); MATIN rating ([9]; dose 0.1 kg/ha): 9 (9 - Complete kill); MATIN rating ([9]; dose 0.4 kg/ha): 9 (9 - Complete kill)
4 | CC(Cl)=CCOc1cc(C)cc(Oc2cc(C(F)(F)F)nn2C)n1 [Example 11] | 5 (5 - Definite injury) | 7 (7 - Good herbicidal effect) | 8 (8 - Approaching complete kill) | 9 (9 - Complete kill) | 1 (1 - Trace effect) | 3 (3 - Moderate effect) | 4 (4 - Injury) | 3 (3 - Moderate effect) | 3 (3 - Moderate effect) | 3 (3 - Moderate effect) | 6 (6 - Herbicidal effect) | 5 (5 - Definite injury) | 7 (7 - Good herbicidal effect) | 8 (8 - Approaching complete kill) | 6 (6 - Herbicidal effect) | 9 (9 - Complete kill) | 9 (9 - Complete kill) | 2 (2 - Slight effect) | 4 (4 - Injury) | 8 (8 - Approaching complete kill) | IPOHE rating ([8]; dose 0.4 kg/ha): 9 (9 - Complete kill); DIGSA rating ([10]; dose 0.013 kg/ha): 8 (8 - Approaching complete kill); DIGSA rating ([10]; dose 0.025 kg/ha): 8 (8 - Approaching complete kill); DIGSA rating ([10]; dose 0.1 kg/ha): 9 (9 - Complete kill); DIGSA rating ([10]; dose 0.4 kg/ha): 9 (9 - Complete kill); MATIN rating ([9]; dose 0.013 kg/ha): 9 (9 - Complete kill); MATIN rating ([9]; dose 0.025 kg/ha): 9 (9 - Complete kill); MATIN rating ([9]; dose 0.1 kg/ha): 9 (9 - Complete kill); MATIN rating ([9]; dose 0.4 kg/ha): 9 (9 - Complete kill)
5 | Cc1cc(OCC=C(Cl)Cl)nc(Oc2cc(C(F)(F)F)nn2C)c1 [Example 12] | 5 (5 - Definite injury) | 8 (8 - Approaching complete kill) | 8 (8 - Approaching complete kill) | 8 (8 - Approaching complete kill) | 2 (2 - Slight effect) | 3 (3 - Moderate effect) | 4 (4 - Injury) | 3 (3 - Moderate effect) | 4 (4 - Injury) | 5 (5 - Definite injury) | 8 (8 - Approaching complete kill) | 8 (8 - Approaching complete kill) | 9 (9 - Complete kill) | 9 (9 - Complete kill) | 7 (7 - Good herbicidal effect) | 8 (8 - Approaching complete kill) | 9 (9 - Complete kill) | 2 (2 - Slight effect) | 3 (3 - Moderate effect) | 9 (9 - Complete kill) | CASOB rating ([6]; dose 0.03 kg/ha): 8 (8 - Approaching complete kill); CASOB rating ([6]; dose 0.1 kg/ha): 8 (8 - Approaching complete kill); CASOB rating ([6]; dose 0.4 kg/ha): 8 (8 - Approaching complete kill); IPOHE rating ([8]; dose 0.4 kg/ha): 9 (9 - Complete kill); DIGSA rating ([10]; dose 0.013 kg/ha): 9 (9 - Complete kill); DIGSA rating ([10]; dose 0.025 kg/ha): 9 (9 - Complete kill); DIGSA rating ([10]; dose 0.1 kg/ha): 9 (9 - Complete kill); DIGSA rating ([10]; dose 0.4 kg/ha): 9 (9 - Complete kill); MATIN rating ([9]; dose 0.013 kg/ha): 8 (8 - Approaching complete kill); MATIN rating ([9]; dose 0.025 kg/ha): 9 (9 - Complete kill); MATIN rating ([9]; dose 0.1 kg/ha): 9 (9 - Complete kill); MATIN rating ([9]; dose 0.4 kg/ha): 9 (9 - Complete kill)
